Experimental data from patent US10676485B2, “Macrocyclic MCL-1 inhibitors and methods of use” (AbbVie Inc., priority 2017, dated 2020).
Like-named read-outs stand apart in the source and are kept apart here.

Experiments:
[1] = test system: AMO-1 xenograft; test: AMO-1 xenograft model of multiple myeloma; assay type: in vivo; conditions: Mus musculus, AMO1, 25 mg/kg/day, IP, QDx1, SCID/bg mice
Description: Tumors were size matched at approximately 200 mm^3. […] Tumor volume was estimated two to three times weekly. […] Mice were euthanized when tumor volume reached 3,000 mm3 or skin ulcerations occurred. Eight mice were housed per cage. Food and water were available ad libitum.
Tumor growth inhibition is calculated by 100*(1−Tv/Cv) where Tv and Cv are the mean tumor volumes of the treated and control groups, respectively.

[2] = molecular target: GST-MCL-1 (Homo sapiens (Human), UniProt Q07820); test: TR-FRET MCL-1 binding assay (competition with probe F-Bak)
Method in brief: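 Compounds as 11 three-fold dilutions from 25 μM with GST-MCL-1, F-Bak probe and Tb-anti-His antibody, 2 h at room temperature. TR-FRET at 340 nm excitation, 520/525 nm (F-Bak) and 495/510 nm (Tb) emission. Run without human serum and with 10% HS.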

[3] = test system: AMO-1 human multiple myeloma tumor cell line; test: AMO-1 cell viability assay (CellTiter-Glo); assay type: cell-based; conditions: AMO1, read-out: AMO-1 Viability IC50 (μM), 10% FBS, 24 hours of compound treatment
[4] = test system: NCI-H929 human multiple myeloma tumor cell line; test: NCI-H929 cell viability assay (CellTiter-Glo); assay type: cell-based; conditions: NCI-H929, read-out: H929 Viability IC50 (μM), 10% FBS, 24 hours of compound treatment
Description: In one exemplary set of conditions, NCI-H929 or AMO-1 (ATCC. Manassas, Va.) were plated 4.000 cells per well in 384-well tissue culture plates (Corning. Corning, N.Y.) in a total volume of 25 μL RPMI tissue culture medium supplemented with 10% fetal bovine serum (Sigma-Aldrich, St. Louis, Mo.) and treated with a 3-fold serial dilution of the compounds of interest with a Labcyte Echo from a final concentration of 10 μM to 0.0005 μM. Each concentration was tested in duplicate at least 3 independent times. A luminescent signal proportional to the number of viable cells following 24 hours of compound treatment was determined using the CellTiter-Glo® Luminescent Cell Viability Assay according to the manufacturer's recommendations (Promega Corp., Madison, Wis.). The plates were read in a Perkin Elmer Envision using a Luminescence protocol. To generate dose response curves the data is normalized to percent viability by setting the averages of the staurosporine (10 uM) and DMSO only control wells to 0% and (00)% viability respectively. The IC50 values for the compounds are generated by fitting the normalized data with Accelrys Assay Explorer 3.3 to a sigmoidal curve model using linear regression.

[5] = read-out: MCL-1 Binding Ki (nM, 10% HS), in the presence of 10% HS
[6] = without HS, read-out: MCL-1 Binding Ki

Chain of GST-MCL-1 (Q07820 whole entry): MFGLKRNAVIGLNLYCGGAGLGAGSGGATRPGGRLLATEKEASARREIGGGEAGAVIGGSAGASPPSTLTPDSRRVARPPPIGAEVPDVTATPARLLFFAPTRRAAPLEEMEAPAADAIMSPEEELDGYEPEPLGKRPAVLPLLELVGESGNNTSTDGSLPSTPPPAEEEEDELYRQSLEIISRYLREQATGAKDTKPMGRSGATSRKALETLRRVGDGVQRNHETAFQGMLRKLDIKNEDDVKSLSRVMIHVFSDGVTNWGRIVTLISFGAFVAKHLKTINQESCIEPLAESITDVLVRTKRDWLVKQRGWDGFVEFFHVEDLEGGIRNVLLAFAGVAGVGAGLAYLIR

SMILES	change in vivo at 25 mg/kg ([1]; read-out: TGD (%))	inhibition in vivo at 25 mg/kg ([1]; read-out: TGImax (%))	Ki [2, 5]	Ki [2, 6]	IC50 [3]	IC50 [4]
Cc1c(Cl)c2c(Cl)c(C)c1-c1c(-c3ccc(F)cc3)sc3ncnc(c13)O[C@@H](C(=O)O)Cc1cc(ccc1OCc1ccnc(N3CCC(F)(COC[C@@H]4COCCO4)CC3)n1)OC[C@@H](CN1CCN(C)CC1)O2 [Example 8, (7R,16R)-19,23-dichloro-10-({2-[4-({[(2S)-1,4-dioxan-2-yl]methoxy}methyl)-4-fluoropiperidin-1-yl]pyrimidin-4-yl}methoxy)-1-(4-fluorophenyl)-20,22-dimethyl-16-[(4-methylpiperazin-1-yl)methyl]-7,8,15,16-tetrahydro-18,21-etheno-13,9-(metheno)-6,14,17-trioxa-2-thia-3,5-diazacyclononadeca[1,2,3-cd]indene-7-carboxylic acid]	46%	79%	2.27 nM	0.194 nM	0.00086 µM	0.00176 µM
Cc1c(Cl)c2c(Cl)c(C)c1-c1c(-c3ccc(F)cc3)sc3ncnc(c13)O[C@@H](C(=O)O)Cc1cc(ccc1OCc1ccnc(N3CCN(S(=O)(=O)CC4COCCO4)CC3)n1)OC[C@@H](CN1CCN(C)CC1)O2 (stereo partly drawn) [Example 26, (7R,16R)-19,23-dichloro-10-[(2-{4-[(1,4-dioxan-2-yl)methanesulfonyl]piperazin-1-yl}pyrimidin-4-yl)methoxy]-1-(4-fluorophenyl)-20,22-dimethyl-16-[(4-methylpiperazin-1-yl)methyl]-7,8,15,16-tetrahydro-18,21-etheno-13,9-(metheno)-6,14,17-trioxa-2-thia-3,5-diazacyclononadeca[1,2,3-cd]indene-7-carboxylic acid]	–	–	1 nM	0.104 nM	0.0002 µM	0.000241 µM
Cc1c(Cl)c2c(Cl)c(C)c1-c1c(-c3ccc(F)cc3)sc3ncnc(c13)O[C@@H](C(=O)O)Cc1cc(ccc1OCc1ccnc(-c3ccc(OC[C@H]4COCCO4)nc3)n1)OC[C@@H](CN1CCN(C)CC1)O2 [Example 5, (7R,16R)-19,23-dichloro-10-{[2-(6-{[(2R)-1,4-dioxan-2-yl]methoxy}pyridin-3-yl)pyrimidin-4-yl]methoxy}-1-(4-fluorophenyl)-20,22-dimethyl-16-[(4-methylpiperazin-1-yl)methyl]-7,8,15,16-tetrahydro-18,21-etheno-13,9-(metheno)-6,14,17-trioxa-2-thia-3,5-diazacyclononadeca[1,2,3-cd]indene-7-carboxylic acid]	–	–	0.71 nM	0.048 nM	0.000178 µM	0.00037 µM
Cc1c(Cl)c2c(Cl)c(C)c1-c1c(C3=CCCC3)sc3ncnc(c13)O[C@@H](C(=O)O)Cc1cc(ccc1OCc1ccnc(C3=CC[C@](F)(COC[C@H]4COCCO4)CC3)n1)OC[C@@H](CN1CCN(C)CC1)O2 [Example 34, (7R,16R)-19,23-dichloro-1-(cyclopent-1-en-1-yl)-10-({2-[(4S)-4-({[(2R)-1,4-dioxan-2-yl]methoxy}methyl)-4-fluorocyclohex-1-en-1-yl]pyrimidin-4-yl}methoxy)-20,22-dimethyl-16-[(4-methylpiperazin-1-yl)methyl]-7,8,15,16-tetrahydro-18,21-etheno-13,9-(metheno)-6,14,17-trioxa-2-thia-3,5-diazacyclononadeca[1,2,3-cd]indene-7-carboxylic acid]	–	–	0.54 nM	0.03 nM	0.000235 µM	0.001 µM
Cc1c(Cl)c2c(Cl)c(C)c1-c1c(-c3ccc(F)cc3)sc3ncnc(c13)O[C@@H](C(=O)O)Cc1cc(ccc1OCc1ccnc([C@H]3CC[C@@H](COC[C@H]4COCCO4)CC3)n1)OC[C@@H](CN1CCN(C)CC1)O2 [Example 50, (7R,16R)-19,23-dichloro-10-({2-[(1S,4s)-4-({[(2S)-1,4-dioxan-2-yl]methoxy}methyl)cyclohexyl]pyrimidin-4-yl}methoxy)-1-(4-fluorophenyl)-20,22-dimethyl-16-[(4-methylpiperazin-1-yl)methyl]-7,8,15,16-tetrahydro-18,21-etheno-13,9-(metheno)-6,14,17-trioxa-2-thia-3,5-diazacyclononadeca[1,2,3-cd]indene-7-carboxylic acid]	–	–	0.249 nM	0.022 nM	0.000249 µM	0.000255 µM
Cc1c(Cl)c2c(Cl)c(C)c1-c1c(-c3ccc(F)cc3)sc3ncnc(c13)O[C@@H](C(=O)O)Cc1cc(ccc1OCc1ccnc(C3COCCOC3)n1)OC[C@@H](CN1CCN(C)CC1)O2 [Example 30, (7R,16R)-19,23-dichloro-10-{[2-(1,4-dioxepan-6-yl)pyrimidin-4-yl]methoxy}-1-(4-fluorophenyl)-20,22-dimethyl-16-[(4-methylpiperazin-1-yl)methyl]-7,8,15,16-tetrahydro-18,21-etheno-13,9-(metheno)-6,14,17-trioxa-2-thia-3,5-diazacyclononadeca[1,2,3-cd]indene-7-carboxylic acid]	–	–	0.16 nM	0.015 nM	0.000285 µM	0.000974 µM
Cc1c(Cl)c2c(Cl)c(C)c1-c1c(-c3ccc(F)cc3)sc3ncnc(c13)O[C@@H](C(=O)O)Cc1cc(ccc1OCc1cncc(-c3ccc(OC[C@H]4COCCO4)cc3)n1)OC[C@@H](CN1CCN(C)CC1)O2 [Example 16, (7R,16R)-19,23-dichloro-10-{[6-(4-{[(2R)-1,4-dioxan-2-yl]methoxy}phenyl)pyrazin-2-yl]methoxy}-1-(4-fluorophenyl)-20,22-dimethyl-16-[(4-methylpiperazin-1-yl)methyl]-7,8,15,16-tetrahydro-18,21-etheno-13,9-(metheno)-6,14,17-trioxa-2-thia-3,5-diazacyclononadeca[1,2,3-cd]indene-7-carboxylic acid]	–	–	0.83 nM	0.048 nM	0.000245 µM	0.000592 µM
Cc1c(Cl)c2c(Cl)c(C)c1-c1c(-c3ccc(F)cc3)sc3ncnc(c13)O[C@@H](C(=O)O)Cc1cc(ccc1OCc1ccnc(OC[C@@H]3COCCO3)n1)OC[C@@H](CN1CCN(C)CC1)O2 [Example 24, (7R,16R)-19,23-dichloro-10-[(2-{[(2S)-1,4-dioxan-2-yl]methoxy}pyrimidin-4-yl)methoxy]-1-(4-fluorophenyl)-20,22-dimethyl-16-[(4-methylpiperazin-1-yl)methyl]-7,8,15,16-tetrahydro-18,21-etheno-9,13-(metheno)-6,14,17-trioxa-2-thia-3,5-diazacyclononadeca[1,2,3-cd]indene-7-carboxylic acid]	–	–	0.38 nM	0.038 nM	0.000687 µM	0.00197 µM
Cc1c(Cl)c2c(Cl)c(C)c1-c1c(-c3ccc(F)cc3)sc3ncnc(c13)O[C@@H](C(=O)O)Cc1cc(ccc1OCc1ccnc(-c3cccc(OC[C@@H]4COCCO4)c3)n1)OC[C@@H](CN1CCN(C)CC1)O2 [Example 22, (7R,16R)-19,23-dichloro-10-{[2-(3-{[(2S)-1,4-dioxan-2-yl]methoxy}phenyl)pyrimidin-4-yl]methoxy}-1-(4-fluorophenyl)-20,22-dimethyl-16-[(4-methylpiperazin-1-yl)methyl]-7,8,15,16-tetrahydro-18,21-etheno-13,9-(metheno)-6,14,17-trioxa-2-thia-3,5-diazacyclononadeca[1,2,3-cd]indene-7-carboxylic acid]	–	–	0.89 nM	0.016 nM	0.000142 µM	0.000333 µM
Cc1c(Cl)c2c(Cl)c(C)c1-c1c(C3=CCCC3)sc3ncnc(c13)O[C@@H](C(=O)O)Cc1cc(ccc1OCc1ccnc(C3=CC[C@](F)(COC[C@@H]4COCCO4)CC3)n1)OC[C@@H](CN1CCN(C)CC1)O2 [Example 35, (7R,16R)-19,23-dichloro-1-(cyclopent-1-en-1-yl)-10-({2-[(4S)-4-({[(2S)-1,4-dioxan-2-yl]methoxy}methyl)-4-fluorocyclohex-1-en-1-yl]pyrimidin-4-yl}methoxy)-20,22-dimethyl-16-[(4-methylpiperazin-1-yl)methyl]-7,8,15,16-tetrahydro-18,21-etheno-13,9-(metheno)-6,14,17-trioxa-2-thia-3,5-diazacyclononadeca[1,2,3-cd]indene-7-carboxylic acid]	–	–	0.52 nM	0.027 nM	0.000261 µM	0.00111 µM
Cc1c(Cl)c2c(Cl)c(C)c1-c1c(-c3ccc(F)cc3)sc3ncnc(c13)O[C@@H](C(=O)O)Cc1cc(ccc1OCc1ccnc(N3CC(COC[C@@H]4COCCO4)C3)n1)OC[C@@H](CN1CCN(C)CC1)O2 [Example 13, (7R,16R)-19,23-dichloro-10-({2-[3-({[(2R)-1,4-dioxan-2-yl]methoxy}methyl)azetidin-1-yl]pyrimidin-4-yl}methoxy)-1-(4-fluorophenyl)-20,22-dimethyl-16-[(4-methylpiperazin-1-yl)methyl]-7,8,15,16-tetrahydro-18,21-etheno-9,13-(metheno)-6,14,17-trioxa-2-thia-3,5-diazacyclononadeca[1,2,3-cd]indene-7-carboxylic acid]	–	–	1.07 nM	0.079 nM	0.00126 µM	0.00311 µM
